Results as given in ChEMBL document CHEMBL5579827, “Discovery of orally bioavailable phenyltetrazolium derivatives for the acute treatment and the secondary prevention of ischemic stroke” (Eur J Med Chem, 2024).
Active and inactive are the calls of the source. The calls are words filed in the database; no cut-off is given here.

What was measured:
N2a [1] = assay: Neuroprotective activity against OGD/R induced cell injury in mouse N2a cells assessed as cell viability at 10 uM preincubated under hypoxic condition for 2 hrs and measured after 24 hrs (reference value: 28.66 to 30.22 %); type: functional; conditions: time 26 hrs, read-out: Activity
[2] = Tmax in Sprague-Dawley rat at 10 mg/kg, po measured upto 8 hrs by LC-MS/MS analysis; type: ADME, organism-based; conditions: in vivo
[3] = AUC(0 to infinity) in Sprague-Dawley rat at 10 mg/kg, po measured upto 8 hrs by LC-MS/MS analysis; type: ADME, organism-based; conditions: in vivo
[4] = Half-life in Sprague-Dawley rat at 10 mg/kg, po measured upto 8 hrs by LC-MS/MS analysis; type: ADME, organism-based; conditions: in vivo
[5] = Cmax in Sprague-Dawley rat at 10 mg/kg, po measured upto 8 hrs by LC-MS/MS analysis; type: ADME, organism-based; conditions: in vivo
[6] = AUC(0 to t) in Sprague-Dawley rat at 10 mg/kg, po measured upto 8 hrs by LC-MS/MS analysis; type: ADME, organism-based; conditions: in vivo
N2a [7] = assay: Neuroprotective activity against OGD/R induced cell membrane integrity loss in mouse N2a cells assessed as reduction in LDH release at 0.1 to 100 uM incubated for 24 hrs; type: functional, cell-based; conditions: dose 0.1-100 µM
[8] = Metabolic stability in dog liver microsomes assessed as intrinsic clearance at 50 uM preincubated with NADPH for 5 mins followed by compound addition and measured upto 60 mins by LC-MS/MS analysis; type: ADME, Canis lupus familiaris, Microsome; conditions: read-out: CLH
[9] = Cmax in ICR mouse at 10 mg/kg, po measured upto 8 hrs by LC-MS/MS analysis; type: ADME, organism-based; conditions: in vivo
[10] = Tmax in ICR mouse at 1 mg/kg, iv measured upto 8 hrs by LC-MS/MS analysis; type: ADME, organism-based; conditions: in vivo
[11] = Metabolic stability in human liver microsomes assessed as half life at 50 uM preincubated with NADPH for 5 mins followed by compound addition and measured upto 60 mins by LC-MS/MS analysis; type: ADME, Microsome
[12] = AUC(0 to infinity) in ICR mouse at 1 mg/kg, iv measured upto 8 hrs by LC-MS/MS analysis; type: ADME, organism-based; conditions: in vivo
Mus musculus [13] = assay: Neuroprotective activity against tMCAO-reperfusion induced brain injury in SPF C57 mouse model assessed as reversal of reduced blood flow in semi-dark band area infarct volume at 3 to 30 mg/kg, iv measured after 24 hrs; type: functional, organism-based; conditions: dose 3-30 mg/kg
Mus musculus [14] = assay: Neuroprotective activity against photo-thrombotic SPF C57 mouse model assessed as improvement in motor function at 30 mg/kg, po administered daily for 7 days; type: functional, organism-based; conditions: time 7.0 day
Mus musculus [15] = assay: Neuroprotective activity against tMCAO-reperfusion induced brain injury in iv dosed SPF C57 mouse model assessed as reduction in infarction region measured after 24 hrs; type: functional, organism-based; conditions: dose 3-30 mg/kg
N2a [16] = assay: Neuroprotective activity against OGD/R induced cell injury in mouse N2a cells assessed as inhibition of cell damage at 0.1 to 100 uM incubated for 24 hrs; type: functional, cell-based; conditions: dose 0.1-100 µM
[17] = Metabolic stability in rat liver microsomes assessed as half life at 50 uM preincubated with NADPH for 5 mins followed by compound addition and measured upto 60 mins by LC-MS/MS analysis; type: ADME, Microsome
Mus musculus [18] = assay: Neuroprotective activity against tMCAO-reperfusion induced brain injury in SPF C57 mouse model assessed as reduction in infarct volume at 10 mg/kg, iv measured after 24 hrs; type: functional; set-up: scale not given: the % may be the effect or the level left
Mus musculus [19] = assay: Neuroprotective activity against photo-thrombotic SPF C57 mouse model assessed as change in motor function at 30 mg/kg, po measured after day 1 to 3; type: functional, organism-based
N2a [20] = assay: Neuroprotective activity against OGD/R induced cell injury in mouse N2a cells assessed as decrease in caspase-3 activity incubated for 24 hrs; type: functional, cell-based; conditions: dose 0.1-100 µM
[21] = AUC(0 to t) in ICR mouse at 1 mg/kg, iv measured upto 8 hrs by LC-MS/MS analysis; type: ADME, organism-based; conditions: in vivo
[22] = Cmax in Sprague-Dawley rat at 10 mg/kg, po measured at 2 hrs by LC-MS/MS analysis; type: ADME, organism-based; conditions: in vivo
Mus musculus [23] = assay: Neuroprotective activity against tMCAO-reperfusion induced brain injury in iv dosed SPF C57 mouse model assessed as decrease in Bax expression measured after 24 hrs by Western blotting analysis; type: functional, organism-based; conditions: dose 3-30 mg/kg
[24] = Metabolic stability in mouse liver microsomes assessed as intrinsic clearance at 50 uM preincubated with NADPH for 5 mins followed by compound addition and measured upto 60 mins by LC-MS/MS analysis; type: ADME, Microsome; conditions: read-out: CLH
[25] = Metabolic stability in monkey liver microsomes assessed as intrinsic clearance at 50 uM preincubated with NADPH for 5 mins followed by compound addition and measured upto 60 mins by LC-MS/MS analysis; type: ADME, Macaca mulatta, Microsome; conditions: rhesus monkey, read-out: CLH
[26] = Metabolic stability in monkey liver microsomes assessed as half life at 50 uM preincubated with NADPH for 5 mins followed by compound addition and measured upto 60 mins by LC-MS/MS analysis; type: ADME, Macaca mulatta, Microsome; conditions: rhesus monkey
[27] = AUC(0 to infinity) in ICR mouse at 10 mg/kg, po measured upto 8 hrs by LC-MS/MS analysis; type: ADME, organism-based; conditions: in vivo
Mus musculus [28] = assay: Neuroprotective activity against tMCAO-reperfusion induced brain injury in iv dosed SPF C57 mouse model assessed as decrease in cleaved caspase-3 expression measured after 24 hrs by Western blotting analysis; type: functional, organism-based; conditions: dose 3-30 mg/kg
Mus musculus [29] = assay: Neuroprotective activity against tMCAO-reperfusion induced brain injury in SPF C57 mouse model assessed as reduction in brain water content at 30 mg/kg, iv measured after 24 hrs; type: functional, organism-based
[30] = Metabolic stability in human liver microsomes assessed as intrinsic clearance at 50 uM preincubated with NADPH for 5 mins followed by compound addition and measured upto 60 mins by LC-MS/MS analysis; type: ADME, Microsome; conditions: read-out: CLH
[31] = Oral bioavailability in ICR mouse at 10 mg/kg measured upto 8 hrs by LC-MS/MS analysis; type: ADME, organism-based; conditions: in vivo
[32] = Tmax in ICR mouse at 10 mg/kg, po measured upto 8 hrs by LC-MS/MS analysis; type: ADME, organism-based; conditions: in vivo
Mus musculus [33] = assay: Neuroprotective activity against tMCAO-reperfusion induced brain injury in SPF C57 mouse model assessed as decrease in neurological deficit score at 30 mg/kg, iv measured after 24 hrs; type: functional
Mus musculus [34] = assay: Neuroprotective activity against tMCAO-reperfusion induced brain injury in SPF C57 mouse model assessed as reduction in infarct volume at 30 mg/kg, iv measured after 24 hrs (reference value: 41.48%); type: functional; set-up: scale not given: the % may be the effect or the level left
[35] = AUC(0 to t) in Sprague-Dawley rat at 10 mg/kg, po measured at 2 hrs by LC-MS/MS analysis; type: ADME, organism-based; conditions: in vivo
[36] = Cmax in ICR mouse at 1 mg/kg, iv measured upto 8 hrs by LC-MS/MS analysis; type: ADME, organism-based; conditions: in vivo
[37] = Metabolic stability in dog liver microsomes assessed as half life at 50 uM preincubated with NADPH for 5 mins followed by compound addition and measured upto 60 mins by LC-MS/MS analysis; type: ADME, Canis lupus familiaris, Microsome
N2a [38] = assay: Neuroprotective activity against OGD/R induced cell injury in mouse N2a cells assessed as reduction in apoptosis at 0.1 to 100 uM incubated for 24 hrs by TUNEL assay; type: functional, cell-based; conditions: dose 0.1-100 µM
[39] = AUC(0 to t) in ICR mouse at 10 mg/kg, po measured upto 8 hrs by LC-MS/MS analysis; type: ADME, organism-based; conditions: in vivo
Mus musculus [40] = assay: Neuroprotective activity against tMCAO-reperfusion induced brain injury in iv dosed SPF C57 mouse model assessed as decrease in cytochrome C expression measured after 24 hrs by Western blotting analysis; type: functional, organism-based; conditions: dose 3-30 mg/kg
[41] = Metabolic stability in mouse liver microsomes assessed as half life at 50 uM preincubated with NADPH for 5 mins followed by compound addition and measured upto 60 mins by LC-MS/MS analysis; type: ADME, Microsome
[42] = Metabolic stability in rat liver microsomes assessed as intrinsic clearance at 50 uM preincubated with NADPH for 5 mins followed by compound addition and measured upto 60 mins by LC-MS/MS analysis; type: ADME, Microsome; conditions: read-out: CLH
Mus musculus [43] = organism: Mus musculus; assay: Neuroprotective activity against photo-thrombotic SPF C57 mouse model assessed as decrease in sensorimotor impairment measured after day 4 to 7; type: functional, organism-based
[44] = Half-life in ICR mouse at 10 mg/kg, po measured upto 8 hrs by LC-MS/MS analysis; type: ADME, organism-based; conditions: in vivo
N2a [45] = assay: Neuroprotective activity against OGD/R induced cell injury in mouse N2a cells assessed as decrease in apoptotic ratio at 10 uM incubated for 24 hrs; type: functional; set-up: scale not given: the % may be the effect or the level left

## CCCCC(O)c1ccccc1-c1cccs1 (centres undefined)
N2a [1]
  viability at 10 µM: 35.4%

## CCCCC(O)c1ccccc1-c1nnn(C)n1 (centres undefined)
[2]; Sprague-Dawley, read-out: Tmax
  Tmax: 15 min
[3]; Sprague-Dawley
  AUC(0-inf): 0.0715 µg·h/mL
[4]; Sprague-Dawley
  half-life: 433 min
[5]; Sprague-Dawley, read-out: Cmax
  Cmax: 0.0131 µg/mL
[6]
  AUC(0-t) at 8 h: 0.0399 µg·h/mL
N2a [1]
  viability at 10 µM: 43.9%

## CCCCC(O)c1ccccc1-c1cc[nH]n1 (centres undefined)
N2a [1]
  viability at 10 µM: 39.5%

## CCCCC(O)c1ccc(Br)cc1-c1nnn(CCN(C)C)n1 (centres undefined)
N2a [1]
  viability at 10 µM: 44%

## CCCCCC(O)c1ccc(Br)cc1-c1nn[nH]n1 (centres undefined)
[2]; Sprague-Dawley, read-out: Tmax
  Tmax: 15 min
[5]; Sprague-Dawley, read-out: Cmax
  Cmax: 13.6 µg/mL
[6]
  AUC(0-t) at 8 h: 2.67 µg·h/mL
N2a [1]
  viability at 10 µM: 38%

## CCCCC(O)c1ccc(Br)cc1-c1nn[nH]n1 (centres undefined)
N2a [7]
  Activity: Active
[8]
  microsomal CLint at 50 µM: < 7.4 µL/min/mg
[9]
  Cmax: 8.71 µg/mL
[10]
  Tmax: 4.8 min
[11]
  half-life at 50 µM: > 186 min
[12]
  AUC(0-inf): 0.55 µg·h/mL
Mus musculus [13]
  Activity: Active
Mus musculus [14]
  Activity: Active
Mus musculus [15]
  Activity: Dose-Dependent Effect
N2a [16]
  Activity: Active
[17]
  half-life at 50 µM: 38.2 min
Mus musculus [18]
  Activity: 18.8%
Mus musculus [19]
  Activity: Active
N2a [20]
  Activity: Dose-Dependent Effect
[2]; po, 10 mg/kg, 8 h
  Tmax: 120 min
[21]
  AUC(0-t) at 8 h: 0.55 µg·h/mL
[22]
  Cmax: 1.07 µg/mL
Mus musculus [23]
  Activity: Dose-Dependent Effect
[24]
  microsomal CLint at 50 µM: 89.1 µL/min/mg
[25]
  microsomal CLint at 50 µM: < 7.4 µL/min/mg
[3]; po, 10 mg/kg, 8 h
  AUC: 11.16 µg·h/mL
[26]
  half-life at 50 µM: > 186 min
[27]
  AUC(0-inf): 5.59 µg·h/mL
Mus musculus [28]
  Activity: Dose-Dependent Effect
[4]; po, 10 mg/kg, 8 h
  t1/2: 287 min
[5]; po, 10 mg/kg, 8 h
  Cmax: 1.13 µg/mL
Mus musculus [29]
  Activity: Active
[30]
  microsomal CLint at 50 µM: < 7.4 µL/min/mg
[31]
  bioavailability: 94.9%
[32]
  Tmax: 15 min
Mus musculus [33]
  Activity: 2.07
Mus musculus [34]
  Activity: 9.59%
[35]
  AUCt: 5.24 µg·h/mL
[36]
  Cmax: 3.76 µg/mL
[37]
  half-life at 50 µM: > 186 min
[6]
  AUC(0-t) at 8 h: 6.99 µg·h/mL
N2a [38]
  Activity: Active
[39]
  AUC(0-t) at 8 h: 5.24 µg·h/mL
Mus musculus [40]
  Activity: Dose-Dependent Effect
[41]
  half-life at 50 µM: 15.6 min
[42]
  microsomal CLint at 50 µM: 36.3 µL/min/mg
Mus musculus [43]
  Activity: Dose-Dependent Effect
[44]
  half-life: 30.6 min
N2a [1]
  viability at 10 µM: 56.6%

## CCCCC1OC(=O)c2ccccc21 (stereo not drawn) [RAC-3-N-BUTYLPHTHALIDE]
Mus musculus [18]
  Activity: 25.43%
N2a [45]
  Activity: 130.83%
N2a [1]
  viability at 10 µM: 36.6%

## CCCCC(O)c1ccccc1-c1ccc[nH]1 (centres undefined)
N2a [1]
  viability at 10 µM: 38.6%

## CCCCC(O)c1cc(Br)ccc1-c1nn[nH]n1 (centres undefined)
[2]; Sprague-Dawley, read-out: Tmax
  Tmax: 15 min
[6]
  AUC(0-t) at 8 h: 2.67 µg·h/mL
N2a [1]
  viability at 10 µM: 37.6%
